Measurements published in US20250109165A1, “CYCLOPHILIN INHIBITORS AND USES THEREOF” (The Broad Institute, Inc., priority 2022, published 2025).
Several values for one entry are separate records, joined by “and”; a condition that tells them apart may be missing. Equal entries are not always repeated.

How the values were obtained:
[1] = system: HeLa cells; test: Fluorescence microscopy on HeLa cells; format: cell-based, human; details: Cy5 labeled compound 6 μM
Method: Fluorescence microscopy on Hela cells. Into 96 well black, clear bottom TC treated plates, cells were seeded in Dulbecco's Modified Eagle Medium (DMEM) supplemented with 10% fetal bovine serum 24 hours prior at a density where wells were ˜80% confluent at time of experiment. Media was removed and cells were then stained with 50 μL of mixture containing Cy5 labeled compound (6 μM) in Kreb's ringer solution HEPES buffered pH 7.2 (KRB), for 1 hour at 37° C. Then, 50 μL Hoechst 33342 (8 μM) and Mitotracker Green FM (0.1 μM) in KRB was added directly to wells containing cells and incubated for 15 minutes at 37° C. Media was removed and cells were washed two times with 100 μL KRB. Cells were then kept adherent to the wells in 100 μL KRB for imaging. Fluorescence microscopy was conducted on an Opera Phenix Plus High-Content Screening System, using Alexa 488, Alexa 647, and Hoescht 33342 channels. Images were analyzed using Harmony 4.9.

[2] = system: mPTP opening in isolated mouse liver mitochondria; test: Mitochondrial calcium retention capacity assay; format: cell-based; details: 2 μM CsA, 10 μM B52-Cy5, 10 μM *B52-Cy5, 20 μM B53-Cy5, 20 μM *B53-Cy5; pulses of 60 μM CaCl2; compared to DMSO control
Method: Isolation of mouse liver mitochondria: All procedures used in animal studies were approved by the Institutional Animal Care and Use Committee at Massachusetts General Hospital. Female C57B1/6 J mice (Jackson Labs) age 10-12 weeks were anesthetized by isoflurane. The liver from one mouse was rinsed in ice-cold PBS, minced in ice-cold isolation buffer containing 0.28 M sucrose, 10 mM Hepes-KOH pH 7.2, 0.2 mM EDTA and 1% (w/v) BSA, gently homogenized with 4 strokes of a tight-fitting Teflon pestle at 1000 rpm, and then centrifuged for 10 minutes at 600 g at 4° C. The supernatant was recovered and centrifuged for 10 minutes at 8000 g at 4° C. The loose outer buffy coat was rinsed off and the pellet resuspended gently in isolation buffer and the spins were repeated. […] The suspension was kept on ice and all assays performed within 4-6 hours following isolation. Quality control was done with every preparation by adding 250 mcg mitochondria to 500 μl of assay buffer containing 137 mM KCl, 10 mM Hepes-KOH pH 7.2, 2.5 mM MgCl2, 5 mM each of glutamate and malate, and 3 mM KH2PO4. Sequential 150 μM ADP pulses were then delivered. Preparations with respiratory control ratio>6 (as assessed by the ratio of ADP-coupled state 3 respiration to state 4 respiration) were used for further experiments. Measurements were made in a custom-built fluorimeter using a cuvette with a Red Eye oxygen patch (Ocean Optics) and an optical probe that is connected to the fluorimeter.
Mitochondrial calcium retention capacity assays: 250 mcg of mouse liver mitochondria isolated as above were added to […] of assay buffer containing 125 mM KCl, 20 mM Hepes-KOH pH 7.2, 1 mM MgCl2, 5 mM each of glutamate and malate, and 3 mM KH2PO4. 0.5 μM Calcium Green-5N (Molecular Probes) was included to monitor extramitochondrial free Ca^2+. Fluorescence was continuously monitored in the custom-built fluorimeter described above, with excitation 470 nm and emission […]. Sequential 60 μM CaCl2) pulses were delivered until Ca^2+ uptake ceased and an abrupt release of previously taken up Ca^2+ was observed, consistent with mPTP opening. The calcium retention capacity ratio (CRC) was obtained by normalizing the number of Ca^2+ pulses that could be taken up in a given condition by that taken up under DMSO control conditions, as previously described^72.

[3] = system: cyclophilins; test: Prolyl-isomerase inhibition screen on cyclophilins and cyclophilin mutants; format: biochemical, human
Method: (§1) IC50 values were calculated to be the value at which 50% inhibition was achieved on each compound's non-linear regression fitted curve.

[4] = biological target: T1, CypE (Homo sapiens, UniProt Q9UNP9); test: Chymotrypsin coupled prolyl-isomerase assay; format: biochemical
T1 construct: PPIE (UniProtKB Entry Q9UNP9: res 131-301); host or cells: E. coli BL21(DE3)
T1 sequence (Q9UNP9 131-301): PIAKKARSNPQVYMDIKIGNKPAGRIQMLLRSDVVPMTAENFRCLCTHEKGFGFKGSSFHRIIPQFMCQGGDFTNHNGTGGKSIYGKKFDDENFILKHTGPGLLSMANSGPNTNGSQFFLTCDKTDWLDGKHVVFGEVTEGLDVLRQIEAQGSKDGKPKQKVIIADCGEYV
Method: as §1

[5] = biological target: T1, CypE; test: Assessment of covalent modification by mass spectrometry; details: after treatment with NaCNBH3
Method: Assessment of covalent modification of CypE and other cyclophilin proteins: Into PCR strip, CypE or other cyclophilin in assay buffer (25 mM HEPES pH 8.0, 100 mM NaCl, 0.01% Triton X-100) was incubated with compound for 1 hour at room temperature. Final concentrations were 20 μM CypE, 100 μM compound, 0.5% DMSO, at a final volume of 20 μL. For analysis of lysine-iminoboronate modification, samples were directly submitted to Harvard's Center for Mass Spectroscopy for LC-MS analysis. For amine-lysine modification, samples were treated with 5 μL of 125 mM sodium cyanoborohydride dissolved in 25 mM Ammonium bicarbonate solution (pH 8.0) and incubated for 4 hours at room temperature. For all other wild-type cyclophilins, protein was treated for 4 hours with C3A, followed by 16 hour treatment with NaCNBH3. Final [NaCNBH3]=25 mM. Samples were then submitted for LC-MS as described above.

[6] = biological target: T1, CypE; test: Competition anisotropy (fluorescence polarization) binding assay with A26-Fl
Method: Competition anisotropy binding assay with A26-Fl: Adapted from previous work^54, into a flat-bottom black untreated 96 well plate (Corning), cyclophilin in assay buffer (25 mM HEPES pH 8.0, 100 mM NaCl, 0.01% Triton X-100) at a predetermined concentration from FIG. 27 was incubated with 0.5 nM A26-Fl for 10 minutes at room temperature. Competitor macrocycle was then added to each well and incubated for 24 hours. Final assay volume was 100 μL with 0.25% DMSO. Fluorescence anisotropy was then measured using a Tecan Spark® plate reader using 492 nm/523 nm excitation/emission settings. Raw fluorescence polarization data was normalized to protein+fluorescent probe and buffer+fluorescent probe and Ki values were calculated using one site-competitive binding equation with Prism 9, importing Kd values from A26-Fl (FIGS. 12A-12C).

[7] = system: cyclophilins; test: Anisotropy binding assay of fluorescein-labeled macrocycles; design: species or system human; details: 0.5 nM fluorescein-labeled macrocycle
Method: Final assay volume was 100 μL with 0.25% DMSO. Fluorescence anisotropy was then measured using a Tecan Spark® plate reader using 492 nm/523 nm excitation/emission settings.

[8] = biological target: T2, CypD (Homo sapiens, UniProt P30405); test: Chymotrypsin coupled prolyl-isomerase assay; format: biochemical
T2 construct: PPIF (UniProtKB Entry P30405: res 45-207); made in house; host or cells: E. coli BL21(DE3)
T2 sequence (P30405 45-207): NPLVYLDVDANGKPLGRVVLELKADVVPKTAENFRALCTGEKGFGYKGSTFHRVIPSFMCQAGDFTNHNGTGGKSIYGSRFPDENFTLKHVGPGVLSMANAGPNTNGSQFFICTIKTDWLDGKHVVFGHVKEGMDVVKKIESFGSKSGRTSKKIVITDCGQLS
Method: as §1

Compound | mitochondrial localization (overlap with Mitotracker Green) [1] | calcium retention capacity prior to mPTP opening [2] | binding to five non-prolyl isomerase active cyclophilins (PPIL2, PPIL3, PPIL4, PPIL6, SDCCAG-10) [7] | binding to prolyl-isomerase-active cyclophilins (in words) [7] | further results
CN1/C(=C/C=C/C=C/C2=[N+](CCCCCC(=O)NCCNC(=O)[C@@H]3CCNC(=O)/C=C/C(=O)N4CCC[C@](Cc5ccccc5)(C4)C(=O)N[C@@H](Cc4ccc(-c5ccc(CC(C(=O)O)C(=O)O)cc5)cc4)C(=O)NCc4ccccc4CC(=O)N3)c3ccccc3C2(C)C)C(C)(C)c2ccccc21 [Compound B52-Cy5] | poor mitochondrial localization and fluorescence | increased calcium retention capacity |  |  | plasma membrane / mammalian cell permeability [1]: not observed; cyclophilin selectivity profile (in words) [3]: retain the same selectivity profile
NC(=O)[C@@H]1CCNC(=O)/C=C/C(=O)N2CCC[C@](Cc3ccccc3)(C2)C(=O)N[C@@H](Cc2ccc(-c3ccc(C=O)cc3)cc2)C(=O)NCc2ccccc2CC(=O)N1 [Compound C5A] |  |  |  |  | CypE potency and selectivity in prolyl isomerase assay (in words) [4]: loss in CypE potency and promiscuous cyclophilin inhibition; IC50 ([4]; wild-type CypE, read-out: IC50^CypE): 1000 nM; mass shift of covalent adduct with CypE [5]: 806 Da and 780 Da; decrease in potency relative to C3A ([6]; FP competition with A26-Fl against CypE): 16 fold; CypE binding in FP competition (in words) ([6]; compared to C3A): attenuated inhibition of CypE
O=C1/C=C/C(=O)N2CCC[C@](Cc3ccccc3)(C2)C(=O)N[C@@H](Cc2ccco2)C(=O)NCc2ccccc2CC(=O)N[C@H](C(=O)NCCCOCCOCCOCCCNC(=O)c2ccc3c(c2)C(=O)OC32c3ccc(O)cc3Oc3cc(O)ccc32)CCN1 [Compound A26-Fl] |  |  | very weak or no binding | promiscuously binds | 
C[N+]1=C(/C=C/C=C/C=C2\N(CCCCCC(=O)NCCNC(=O)[C@H]3CCNC(=O)/C=C/C(=O)N4CCC[C@@](Cc5ccccc5)(C4)C(=O)N[C@H](Cc4ccc(-c5ccc(CC(C(=O)O)C(=O)O)cc5)cc4)C(=O)NCc4ccccc4CC(=O)N3)c3ccccc3C2(C)C)C(C)(C)c2ccccc21 [*B52-Cy5] | poor mitochondrial localization and fluorescence | did not influence calcium retention capacity |  |  | CypD prolyl-isomerase inhibition (in words) [8]: did not inhibit CypD; inhibition of cyclophilins tested (in words) [3]: no substantial inhibition profile
O=C1/C=C/C(=O)N2CCC[C@](Cc3ccccc3)(C2)C(=O)N[C@@H](Cc2ccc(-c3ccc(CC(C(=O)O)C(=O)O)cc3)cc2)C(=O)NCc2ccccc2CC(=O)N[C@H](C(=O)NCCCOCCOCCOCCCNC(=O)c2ccc3c(c2)C(=O)OC32c3ccc(O)cc3Oc3cc(O)ccc32)CCN1 [Compound B52-Fl] |  |  | very weak or no binding | selective binding for CypD | 
C[N+]1=C(/C=C/C=C/C=C2\N(CCCCCC(=O)NCCNC(=O)[C@H]3CCNC(=O)/C=C/C(=O)N4CCC[C@@](Cc5ccccc5)(C4)C(=O)N[C@H](Cc4ccc(-c5ccc(C(CC(=O)O)CC(=O)O)cc5)cc4)C(=O)NCc4ccccc4CC(=O)N3)c3ccccc3C2(C)C)C(C)(C)c2ccccc21 [*B53-Cy5] | poor mitochondrial localization and fluorescence | did not influence calcium retention capacity |  |  | CypD prolyl-isomerase inhibition (in words) [8]: did not inhibit CypD; inhibition of cyclophilins tested (in words) [3]: no substantial inhibition profile
CN1/C(=C/C=C/C=C/C2=[N+](CCCCCC(=O)NCCNC(=O)[C@@H]3CCNC(=O)/C=C/C(=O)N4CCC[C@](Cc5ccccc5)(C4)C(=O)N[C@@H](Cc4ccc(-c5ccc(C(CC(=O)O)CC(=O)O)cc5)cc4)C(=O)NCc4ccccc4CC(=O)N3)c3ccccc3C2(C)C)C(C)(C)c2ccccc21 [Compound B53-Cy5] | poor mitochondrial localization and fluorescence | increased calcium retention capacity |  |  | plasma membrane / mammalian cell permeability [1]: not observed; cyclophilin selectivity profile (in words) [3]: retain the same selectivity profile
O=C(O)CC(CC(=O)O)c1ccc(-c2ccc(C[C@@H]3NC(=O)[C@]4(Cc5ccccc5)CCCN(C4)C(=O)/C=C/C(=O)NCC[C@@H](C(=O)NCCCOCCOCCOCCCNC(=O)c4ccc5c(c4)C(=O)OC54c5ccc(O)cc5Oc5cc(O)ccc54)NC(=O)Cc4ccccc4CNC3=O)cc2)cc1 [Compound B53-Fl] |  |  | very weak or no binding | selective binding for CypD | 
